Test results reported in patent US20220259164A1, “USE OF AMINOTHIOL COMPOUNDS AS CEREBRAL NERVE OR HEART PROTECTIVE AGENT” (SHANGHAI KECHOW PHARMA, INC., priority 2019, published 2022).
Values joined by “and” are separate entries in the source; they are usually repeats but may differ in a detail not shown here. Identical values can stand only once.

Experiments:
[1] = Body weight of cisplatin-induced SD rats; assay type: in vivo, rat
Protocol: (§1) Healthy male SPF grade SD rats (body weight 250-300 g) were selected. Cisplatin+compound B group: 5 mg/kg i.p.+compound B at 200 mg/kg i.p., with compound B being administered 30 min prior to cisplatin administration Cisplatin+amifostine group: 5 mg/kg i.p.+AMI at 200 mg/kg i.p., with AMI being administered 30 min prior to cisplatin administration Cisplatin+compound A group: 5 mg/kg i.p.+compound A at 800 mg/kg p.o., with compound A being administered 30 min prior to cisplatin administration (1) The SD rats used in the experiment were weighed, labeled, and evenly divided into 5 groups, with 3 SD rats in each group. (2) The compound B, compound A, and AMI groups were respectively administered at the planned concentrations. […] (3) The rats were weighed and recorded daily, and on day 5, blood was taken from the intraocular canthus of the SD rats and placed in an anticoagulant tube.

[2] = system: cisplatin-induced nephrotoxicity in SD rats; experiment: Cisplatin-induced nephrotoxicity in SD rats: blood creatinine and urea nitrogen; assay type: in vivo, rat; conditions: for Creatinine / Urea nitrogen: whole blood day 5, individual rats
Protocol: as §1, with “selected. Control group: PBS […]” for “selected.”

[3] = system: rat myocardial infarction model (coronary ligation 30 min, reperfusion); experiment: Myocardial infarction model: myocardial enzyme LDH in serum; assay type: in vivo; conditions: isosorbide mononitrate injection i.v. 1 mg/kg
Protocol: 1. The rats were grouped and administered according to the following methods (2) Compound B (i.v.) at 100 mg/kg (3) Compound A (i.v.) at 100 mg/kg (4) Compound A (oral) at 500 mg/kg (5) Isosorbide mononitrate injection (i.v.) at 1 mg/kg (equivalent to clinical equivalent dose). There were 10 rats in each group, and the rats were administered intravenously immediately after 30 min of ischemia and reperfusion, i.v. 10% 1 min+i.v. drip 90% 30 min. The administration volume was 2 ml/rat. Compound A (oral) at 500 mg/kg was administered intragastrically 2 h after reperfusion when the animal was awake, and the administration volume was 10 ml/kg. Note: Compounds A and B used in this example were in the form of hydrochloride salts thereof. Given intraperitoneal injection of 3% sodium pentobarbital at 60 mg/kg for general anesthesia, the rats were fixed on an operating table in the supine position. The surgical field of the anterolateral chest was depilated and routinely disinfected. The skin and muscular layer were cut open, purse-string suture was performed on the muscular layer, the chest was opened on the left at the fourth intercostal space, and the heart was pulled out with a ring-shaped retractor. At the position of the anterior descending coronary artery 3-4 mm below the left atrial appendage, a 6/0 damage-free silk thread was threaded, and a nylon thread with a diameter of 1.6 mm was juxtaposed and ligated together with the anterior descending coronary artery, while the other end was left outside the body for later use. The heart was placed back into the chest cavity, the air in the chest cavity was emptied, and the chest cavity was closed. 30 min after ligation, the nylon thread was carefully removed for reperfusion. Compared with the normal lead II electrocardiogram (ECG-II), ST segment elevation in ECG-II by 0.1 mV or more 30 min after coronary artery ligation was regarded as successful ischemia. […] Blood was collected from the rats through the abdominal aorta and centrifuged at 3000 rpm×10 min at 4° C., and the upper serum was taken to determine LDH by enzyme-linked immunosorbent assay.

[4] = system: rat myocardial infarction model (coronary ligation 30 min, reperfusion); experiment: Myocardial infarction model: myocardial infarction range (TTC staining); assay type: in vivo; conditions: isosorbide mononitrate injection i.v. 1 mg/kg
Protocol: 1. The rats were grouped and administered according to the following methods (2) Compound B (i.v.) at 100 mg/kg (3) Compound A (i.v.) at 100 mg/kg (4) Compound A (oral) at 500 mg/kg (5) Isosorbide mononitrate injection (i.v.) at 1 mg/kg (equivalent to clinical equivalent dose). There were 10 rats in each group, and the rats were administered intravenously immediately after 30 min of ischemia and reperfusion, i.v. 10% 1 min+i.v. drip 90% 30 min. The administration volume was 2 ml/rat. Compound A (oral) at 500 mg/kg was administered intragastrically 2 h after reperfusion when the animal was awake, and the administration volume was 10 ml/kg. Note: Compounds A and B used in this example were in the form of hydrochloride salts thereof. Given intraperitoneal injection of 3% sodium pentobarbital at 60 mg/kg for general anesthesia, the rats were fixed on an operating table in the supine position. The surgical field of the anterolateral chest was depilated and routinely disinfected. The skin and muscular layer were cut open, purse-string suture was performed on the muscular layer, the chest was opened on the left at the fourth intercostal space, and the heart was pulled out with a ring-shaped retractor. At the position of the anterior descending coronary artery 3-4 mm below the left atrial appendage, a 6/0 damage-free silk thread was threaded, and a nylon thread with a diameter of 1.6 mm was juxtaposed and ligated together with the anterior descending coronary artery, while the other end was left outside the body for later use. The heart was placed back into the chest cavity, the air in the chest cavity was emptied, and the chest cavity was closed. 30 min after ligation, the nylon thread was carefully removed for reperfusion. Compared with the normal lead II electrocardiogram (ECG-II), ST segment elevation in ECG-II by 0.1 mV or more 30 min after coronary artery ligation was regarded as successful ischemia.

[5] = system: SD rat cerebral ischemia reperfusion injury model (MCAO); experiment: Neurobehavioral evaluation (5-point Longa/Bederson score) in rat ischemic stroke model (MCAO); assay type: in vivo; set-up: key to Neurological function score After modeling: Longa/Bederson 5-point scale (0-4); higher = more severe deficit; conditions: for Neurological function score After modeling: individual rats
Description: Healthy male SPF grade SD rats (body weight 250-300 g) were selected. […] (2) A midline neck incision was made to expose the right common carotid artery, internal carotid artery and external carotid artery. A 6-0 silk thread was used to ligate the distal end of the external carotid artery at 4 mm from the bifurcation of the common carotid artery, another 6-0 silk thread was inserted at the external carotid artery, and a slipknot was tied near the bifurcation of the common carotid artery. (3) An arterial clamp was used to clamp the common carotid artery. […] (4) The thread embolism was removed 90 min after ischemia, the proximal end of the external artery was ligated with a 6-0 silk thread, the neck wound was sutured with a 3-0 silk thread, the wound was disinfected with povidone iodine, the rats were placed on a heating pad, and after being awake, they were placed in a constant temperature rearing box for rearing. […] The experimental animals were scored for signs of neurological function deficit before and after modeling. The scoring standard was given by reference to the 5-point system of Longa and Bederson. The scoring was performed 24 h after the animals were awake from anesthesia. The higher the score, the more severe the behavioral disorder of the animals. 0 point: No nerve damage symptoms […] Inability to fully extend the contralateral front paw […] Turning in a circle to the opposite side […] Falling over to the opposite side 4 points: Inability to walk spontaneously, and loss of consciousness In a manner same as in Example 1, experimental animals were selected, except that the experiment was divided into seven groups (i.e., groups […], and G, among which groups C, D, and E were given different dosages of administration from Example 1, group F was given edaravone, and group G was given amifostine).

[6] = system: radiation intestinal injury in C57 male mice; experiment: Protective effect on radiation intestinal injury (HE staining of small intestine); assay type: in vivo; conditions: 517 mpk i.p. 30 min before 16 Gy abdominal irradiation; fifth day
Protocol: C57 male mice were randomly divided into 4 groups, namely a blank control group, an irradiation group, a compound B (TFA) irradiation group, and an AMI irradiation group, respectively. The mode of administration for each group was an intraperitoneal injection, 30 min before irradiation. The dosage of administration was 517 mpk, and the abdominal irradiation dose was 16 Gy. On the fifth day, the small intestine tissue was taken for HE staining.

[7] = system: radiation lung injury in C57 male mice; experiment: Protective effect on radiation lung injury (HE staining of lung); assay type: in vivo; conditions: 517 mpk i.p. 30 min before 17 Gy right lung irradiation; months 2, 4, 6
Protocol: C57 male mice were randomly divided into 4 groups, namely a blank control group, an irradiation group, a compound B (TFA) irradiation group, and an AMI irradiation group, respectively. The mode of administration for each group was an intraperitoneal injection, 30 min before irradiation. The dosage of administration was 517 mpk, and the irradiation dose to the right lung was 17 Gy. […] Lung tissues were taken at months 2, 4, and 6 for HE staining

[8] = system: SD rat cerebral ischemia reperfusion injury model (MCAO); experiment: TTC staining and cerebral infarction area in rat ischemic stroke model (MCAO); assay type: in vivo; conditions: for Cerebral infarction area: individual rats
Protocol: Healthy male SPF grade SD rats (body weight 250-300 g) were selected. (1) The rats were anesthetized, the skin on the neck was prepared, and the body temperature was maintained at 37±0.5° C. (2) A midline neck incision was made to expose the right common carotid artery, internal carotid artery and external carotid artery. A 6-0 silk thread was used to ligate the distal end of the external carotid artery at 4 mm from the bifurcation of the common carotid artery, another 6-0 silk thread was inserted at the external carotid artery, and a slipknot was tied near the bifurcation of the common carotid artery. (3) An arterial clamp was used to clamp the common carotid artery. A small opening was cut on the external carotid artery at 3 mm from the bifurcation of the common carotid artery, and a 0.33 mm diameter nylon thread with a treated head end was inserted through the small opening, entered the internal carotid artery, and was inserted inward to the middle cerebral artery, wherein the insertion depth of the nylon thread was about 16±1 mm from the bifurcation of the common carotid artery. (4) The thread embolism was removed 90 min after ischemia, the proximal end of the external artery was ligated with a 6-0 silk thread, the neck wound was sutured with a 3-0 silk thread, the wound was disinfected with povidone iodine, the rats were placed on a heating pad, and after being awake, they were placed in a constant temperature rearing box for rearing. […] After the rats were anesthetized, the brain tissues were taken from the rats, placed in a refrigerator and frozen at -20° C. for 30 min. 1% TTC (W/V) was prepared with PBS and placed in a water bath at 37° C. until the TTC was dissolved, and the frozen brain tissue was sliced, placed in 10 ml of the TTC solution and incubated at 37° C. for 10 min. The brain slices were turned from time to time to make the tissue evenly stained. Normal brain tissue was bright red after staining, whereas the infarction region was pale white in color or light white in a black and white image. In addition, a software was used to measure and statistically analyze the infarction area. In a manner same as in Example 1, experimental animals were selected, except that the experiment was divided into seven groups (i.e., groups […], and G, among which groups C, D, and E were given different dosages of administration from Example 1, group F was given edaravone, and group G was given amifostine).

[9] = Example 2 group G: amifostine 100 mg/kg i.p. 5 min before reperfusion
[10] = amifostine 200 mg/kg i.p. 30 min prior to cisplatin 5 mg/kg i.p.
[11] = Example 2 group F: edaravone 3 mg/kg i.v. before reperfusion

[NH2][Pt]([NH2])([Cl])[Cl] [CDDP, cisplatin, reference compound]
Change in body weight ([1]; cisplatin alone 5 mg/kg i.p.): the body weight dropped significantly
Creatinine ([2]; cisplatin alone 5 mg/kg i.p.): 58.6 µmol/L and 54.1 µmol/L and 78 µmol/L
Urea nitrogen ([2]; cisplatin alone 5 mg/kg i.p.): 18.70 mmol/L and 7.81 mmol/L and 12.9 mmol/L

O=[N+]([O-])O[C@@H]1CO[C@H]2[C@@H]1OC[C@@H]2O [Isosorbide mononitrate injection, Isosorbide mononitrate, reference compound]
Improvement rate (%) of LDH ([3]; compared with model group): 22.4%
LDH ([3]; serum, x ± s, n = 10): 1472.7 ± 454.5 U/L
Improvement rate (%) of myocardial infarction range ([4]; compared with model group): 25.5%
Infarction range (%) ([4]; x ± s, n = 10): 30.1 ± 6.7 %

NCCCNCCSP(=O)(O)O [amifostine, reference compound]
% Behavioral improvement [5, 9]: 29.32%
Neurological function score After modeling [5, 9]: 2 (2×) and 1 (2×) and 3 (2×)
Changes in the intestinal villi structure (HE staining) [6]: milder than that in the irradiation group
Change in body weight of cisplatin-induced SD rats ([1]; 30 min prior to cisplatin 5 mg/kg i.p.: compound B 200 mg/kg i.p., compound A 800 mg/kg p.o., amifostine 200 mg/kg i.p., weighed daily): the degree of decrease was significantly better than that of the cisplatin group
Inflammatory cell infiltration / radiation pneumonitis in lung (HE staining) [7]: could partially relieve the inflammatory cell infiltration and reduce the occurrence of radiation pneumonitis
% Improvement of cerebral infarction area [8, 9]: 23.24%
Cerebral infarction area [8, 9]: 58.88 mm^3 and 20.71 mm^3 and 0 mm^3 and 244.96 mm^3 and 204.11 mm^3 and 20.31 mm^3
Effect on cisplatin-induced increase of blood creatinine and urea nitrogen (in words) ([2]; 30 min prior to cisplatin 5 mg/kg i.p.: compound B 200 mg/kg i.p., compound A 800 mg/kg p.o., amifostine 200 mg/kg i.p., day 5): significantly reduce the increased blood creatinine and urea nitrogen levels
Creatinine [2, 10]: 19.8 µmol/L and 38.9 µmol/L and 21.9 µmol/L
Urea nitrogen [2, 10]: 5.51 mmol/L and 5.34 mmol/L and 5.49 mmol/L

CC1=NN(c2ccccc2)C(=O)C1 [edaravone, reference compound]
% Behavioral improvement [5, 11]: 46.99%
Neurological function score After modeling [5, 11]: 1 (4×) and 2 and 3
% Improvement of cerebral infarction area [8, 11]: 58.85% and 58.95%
Cerebral infarction area [8, 11]: 0 mm^3 (2×) and 10.31 mm^3 and 45.35 mm^3 and 220.66 mm^3 and 17.11 mm^3
